According to ChEMBL document CHEMBL1139639, “A three-residue, continuous binding epitope peptidomimetic of ShK toxin as a Kv1.3 inhibitor” (Bioorg Med Chem Lett, 2005):

Target: Potassium voltage-gated channel subfamily A member 3 (Mus musculus, UniProt P16390)
Experiment: Effective concentration against murine voltage-gated potassium channel subunit Kv1.3 expressed in L929 cells using patch clamp
Type: cell-based

Chain of Potassium voltage-gated channel subfamily A member 3 (P16390 whole entry): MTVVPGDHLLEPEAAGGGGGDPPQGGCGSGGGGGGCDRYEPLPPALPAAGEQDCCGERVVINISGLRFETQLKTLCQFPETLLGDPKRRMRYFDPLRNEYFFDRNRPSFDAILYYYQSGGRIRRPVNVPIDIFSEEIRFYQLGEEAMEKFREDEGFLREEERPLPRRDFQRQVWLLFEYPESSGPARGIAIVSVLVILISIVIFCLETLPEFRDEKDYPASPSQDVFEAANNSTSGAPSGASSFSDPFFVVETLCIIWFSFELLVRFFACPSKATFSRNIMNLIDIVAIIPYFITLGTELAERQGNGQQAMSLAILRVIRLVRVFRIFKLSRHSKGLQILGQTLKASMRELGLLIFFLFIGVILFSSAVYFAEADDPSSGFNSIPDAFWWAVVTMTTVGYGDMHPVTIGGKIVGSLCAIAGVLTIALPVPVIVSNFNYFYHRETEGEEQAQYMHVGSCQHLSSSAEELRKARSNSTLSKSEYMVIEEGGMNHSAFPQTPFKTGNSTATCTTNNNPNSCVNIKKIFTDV

In the case of `NCCCCNC(=O)c1ccc(CN=C(N)N)c2ccn(CCc3ccccc3)c12`, the EC50 is reported as 75 µM.
